pIC50: −log10 of the molar value.
What was measured:
[1] = target: T1, human NPFFR1 (hNPFFR1) receptor (Homo sapiens, UniProt Q9GZQ6); test: Human NPFFR1 evaluation using BRET biosensors in HEK-293 T cells; type: cell-based; conditions: hNPFFR1 in HEK-293 T cells, stimulated by EC80 RFRP-3, read-out: IC50 of antagonist activity
T1 construct: expressed in transfected cells; host or cells: HEK-293 T cells, transient co-transfection
Experimental: Compounds of the present invention were tested successively for their agonist and antagonist activities on human NPFFR1 (hNPFFR1) receptor transiently over-expressed in HEK-293 T cells. Compounds exert agonist activity if, by themselves in absence of neuropeptide RFRP-3 (also named NPVF) they activate hNPFFR1; and they exert antagonist activity if they decrease the action of RFRP-3 on the receptor. The assay used to measure compound activity is based on BRET (Bioluminescence Resonance Energy Transfer) biosensors and is designed to monitor the plasma membrane translocation of protein that interacts with specific Ga subunit. The specific effector (luciferase tagged: BRET donor) recruited at the membrane will be in close proximity to a plasma membrane anchor (GFP tagged: BRET acceptor) to induce a BRET signal (Ramdan et al, 2006, Chapter 5, Current Protocols in Neuroscience).
HEK-293 T cells are maintained in Dulbecco's Modified Eagle's Medium supplemented with 10% Foetal Calf Serum, 1% Penicillin/Streptomycin at 37° C./5% CO2. Cells are co-transfected using polyethylenimine (25 kDa linear) with four DNA plasmids encoding; hNPFFR1, GαoB, a Gi family specific intracellular effector fused to luciferase (BRET donor), a plasma membrane effector fused to GFP (BRET acceptor). After transfection, cells are cultured for 48 h at 37° C./5% CO2.
Receptor activity is detected by changes in BRET signal.
On the day of the assay, cells are detached using trypsin 0.05%, resuspended in assay buffer (1.8 mM CaCl2, 1 mM MgCl2, 2.7 mM KCl, 137 mM NaCl, 0.4 mM NaH2PO4, 5.5 mM D-Glucose, 11.9 mM NaHCO3, 25 mM Hepes) and seeded in 384 well plate at a density of 20,000 cells per well. Then, plates are equilibrated 3.5 hours at 37° C. before adding compounds.
Compounds and luciferase substrate are added to the cells using an automated device (Freedom Evo®, Tecan) and BRET readings are collected on EnVision (PerkinElmer) with specific filters (410 nm BW 80 nm, 515 nm BW 30 nm).
Agonist and antagonist activities of compounds are consecutively evaluated on the same cell plate. Agonist activity is first measured after 10 minutes incubation with compound alone on the cells. Then, cells are stimulated by an EC80 RFRP-3 concentration and luminescence is recorded for additional 10 minutes. EC80 RFRP-3 concentration is the concentration giving 80% of the maximal RFRP-3 response. Agonist or antagonist activities are evaluated in comparison to basal signals evoked by assay buffer or EC80 RFRP-3 alone, respectively.
For IC50 determination, a dose-response test is performed using 20 concentrations (ranging over 6 logs) of each compound. Dose-response curves are fitted using the sigmoidal dose-response (variable slope) analysis in GraphPad Prism software (GraphPad Software) and IC50 of antagonist activity is calculated. Dose-response experiments are performed in duplicate, in two independent experiments.

T1 sequence (Q9GZQ6 whole entry): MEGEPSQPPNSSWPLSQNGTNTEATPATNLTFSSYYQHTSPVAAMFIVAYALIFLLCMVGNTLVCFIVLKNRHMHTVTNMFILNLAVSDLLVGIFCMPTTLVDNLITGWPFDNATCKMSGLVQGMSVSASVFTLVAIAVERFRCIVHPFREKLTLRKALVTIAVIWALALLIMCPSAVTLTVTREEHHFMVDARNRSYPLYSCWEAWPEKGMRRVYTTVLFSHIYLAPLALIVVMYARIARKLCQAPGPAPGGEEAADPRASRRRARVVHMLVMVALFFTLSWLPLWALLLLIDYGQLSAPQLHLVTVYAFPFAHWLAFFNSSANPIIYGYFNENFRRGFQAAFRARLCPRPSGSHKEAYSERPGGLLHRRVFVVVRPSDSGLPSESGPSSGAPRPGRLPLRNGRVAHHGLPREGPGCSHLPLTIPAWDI

Row | SMILES | pIC50 [1] | melting point [°C]
1 | Cc1cc(C(F)(F)F)ccc1-c1ccc(N)nc1N [Compound 57, 3-(2-Methyl-4-trifluoromethyl-phenyl)-pyridine-2,6-diamine] | < 6.00 | 60 to 65
2 | Cc1cccc(-c2ccc(N)nc2N)c1Cl [Compound 58, 3-(2-chloro-3-methyl-phenyl)-pyridine-2,6-diamine] | 6.30 to 7.00 | 109 to 114
3 | CC(C)Oc1ccc(F)cc1-c1ccc(N)nc1N [Compound 50, 3-(5-Fluoro-2-isopropoxy-phenyl)-pyridine-2,6-diamine] | 6.00 to 6.30 | 93 to 97
4 | Cc1cc(Cl)ccc1-c1ccc(N)nc1N [Compound 54, 3-(4-Chloro-2-methyl-phenyl)-pyridine-2,6-diamine] | < 6.00 | 80 to 85
5 | Cl.N#Cc1ccccc1-c1ccc(N)nc1N [Compound 96, 2-(2,6-diamino-3-pyridyl)benzonitrile] | 6.30 to 7.00 | > 250
6 | Cc1cccc(C)c1-c1ccc(N)nc1N [Compound 51, 3-(2,6-Dimethyl-phenyl)-pyridine-2,6-diamine] | 6.30 to 7.00 | 104 to 108
7 | Cl.Nc1ccc(-c2ccc(O)c3ccccc23)c(N)n1 [Compound 74, 4-(2,6-diamino-3-pyridyl)naphthalen-1-ol] | 6.00 to 6.30 | 160 to 166
8 | Cc1ccc(OC(C)C)c(-c2ccc(N)nc2N)c1 [Compound 49, 3-(2-Isopropoxy-5-methyl-phenyl)-pyridine-2,6-diamine] | 6.00 to 6.30 | 78 to 81
9 | Cl.Nc1ccc(-c2ccc(F)c3ccccc23)c(N)n1 [Compound 72, 3-(4-fluoro-1-naphthyl)pyridine-2,6-diamine] | > 7.00 | 119 to 126
10 | CSc1ccccc1-c1ccc(N)nc1N.Cl [Compound 59, 3-(2-Methylsulfanyl-phenyl)-pyridine-2,6-diamine] | 6.30 to 7.00 | 73 to 78
11 | Cc1ccc(-c2ccc(N)nc2N)c2ccccc12.Cl [Compound 71, 3-(4-methyl-1-naphthyl)pyridine-2,6-diamine] | 6.30 to 7.00 | 127 to 132
12 | Cc1ncccc1-c1ccc(N)nc1N [Compound 84, 3-(2-methyl-3-pyridyl)pyridine-2,6-diamine] | < 6.00 | 192 to 198
13 | Cc1ccc(Cl)cc1-c1ccc(N)nc1N [Compound 56, 3-(5-Chloro-2-methyl-phenyl)-pyridine-2,6-diamine] | 6.30 to 7.00 | 95 to 97
14 | Cl.Nc1ccc(-c2ccccc2OCc2ccccc2)c(N)n1 [Compound 64, 3-(2-benzyloxyphenyl)pyridine-2,6-diamine] | > 7.00 | 50 to 60
15 | COc1ccccc1-c1ccc(N)nc1C [Compound 26, 5-(2-Methoxy-phenyl)-6-methyl-pyridin-2-ylamine] | < 6.00 | 132 to 140
16 | Nc1ccc(-c2ccc(Cl)cc2F)c(N)n1 [Compound 41, 3-(4-Chloro-2-fluoro-phenyl)-pyridine-2,6-diamine] | < 6.00 | 134 to 139
17 | Cc1ccc(-c2ccc(N)nc2N)c(OC(C)C)c1 [Compound 46, 3-(2-Isopropoxy-4-methyl-phenyl)-pyridine-2,6-diamine] | < 6.00 | 75 to 80
18 | Cc1cc(N)ncc1-c1cccc(Cl)c1Cl [Compound 22, 5-(2,3-Dichloro-phenyl)-4-methyl-pyridin-2-ylamine] | < 6.00 | 94 to 97
19 | CCc1nc(N)ccc1-c1ccccc1C1CC1.Cl [Compound 30, 5-(2-cyclopropylphenyl)-6-ethyl-pyridin-2-amine] | 6.30 to 7.00 | 180 to 190
20 | CC(C)Oc1cc(F)ccc1-c1ccc(N)nc1N [Compound 53, 3-(4-Fluoro-2-isopropoxy-phenyl)-pyridine-2,6-diamine] | 6.30 to 7.00 | 59 to 63
